Measurements taken from ChEMBL document CHEMBL4622965, “Structural Basis of Inhibition of Insulin-Regulated Aminopeptidase by a Macrocyclic Peptidic Inhibitor” (ACS Med Chem Lett, 2020).
The source made the active and inactive calls. No cut-off for these calls is given here.

What was measured:
[1] = biological target: Endoplasmic reticulum aminopeptidase 1 (Homo sapiens, UniProt Q9NZ08); test: Inhibition of ERAP1 (unknown origin) using Leu-AMC as substrate by fluorescence based assay
[2] = biological target: Endoplasmic reticulum aminopeptidase 2 (Homo sapiens, UniProt Q6P179); test: Inhibition of ERAP2 (unknown origin) using Arg-AMC as substrate by fluorescence based assay
Chain of Endoplasmic reticulum aminopeptidase 2 (Q6P179 whole entry): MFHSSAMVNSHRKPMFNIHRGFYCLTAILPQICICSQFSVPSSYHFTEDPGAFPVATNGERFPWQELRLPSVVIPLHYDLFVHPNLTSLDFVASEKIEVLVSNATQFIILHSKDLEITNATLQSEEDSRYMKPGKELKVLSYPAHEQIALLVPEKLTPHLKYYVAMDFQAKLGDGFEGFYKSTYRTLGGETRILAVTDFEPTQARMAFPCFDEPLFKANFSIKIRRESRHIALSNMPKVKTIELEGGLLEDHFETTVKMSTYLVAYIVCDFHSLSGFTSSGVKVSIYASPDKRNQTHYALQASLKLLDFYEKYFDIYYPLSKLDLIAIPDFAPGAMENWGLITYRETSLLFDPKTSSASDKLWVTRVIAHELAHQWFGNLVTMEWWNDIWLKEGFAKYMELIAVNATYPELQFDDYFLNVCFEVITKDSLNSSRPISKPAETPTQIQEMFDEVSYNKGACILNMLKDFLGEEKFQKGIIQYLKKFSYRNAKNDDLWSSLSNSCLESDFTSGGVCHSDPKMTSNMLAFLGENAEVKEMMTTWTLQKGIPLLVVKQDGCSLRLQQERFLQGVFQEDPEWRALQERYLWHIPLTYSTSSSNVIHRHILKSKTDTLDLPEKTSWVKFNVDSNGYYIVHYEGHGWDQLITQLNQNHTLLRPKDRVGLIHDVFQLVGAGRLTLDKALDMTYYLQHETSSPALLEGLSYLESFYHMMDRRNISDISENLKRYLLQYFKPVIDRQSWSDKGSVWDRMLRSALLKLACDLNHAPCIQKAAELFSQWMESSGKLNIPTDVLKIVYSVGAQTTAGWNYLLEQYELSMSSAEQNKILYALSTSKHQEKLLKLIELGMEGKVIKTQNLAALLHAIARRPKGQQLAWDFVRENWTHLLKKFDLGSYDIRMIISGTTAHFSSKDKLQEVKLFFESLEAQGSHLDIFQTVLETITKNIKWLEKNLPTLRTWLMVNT

Chain of Endoplasmic reticulum aminopeptidase 1 (Q9NZ08 whole entry): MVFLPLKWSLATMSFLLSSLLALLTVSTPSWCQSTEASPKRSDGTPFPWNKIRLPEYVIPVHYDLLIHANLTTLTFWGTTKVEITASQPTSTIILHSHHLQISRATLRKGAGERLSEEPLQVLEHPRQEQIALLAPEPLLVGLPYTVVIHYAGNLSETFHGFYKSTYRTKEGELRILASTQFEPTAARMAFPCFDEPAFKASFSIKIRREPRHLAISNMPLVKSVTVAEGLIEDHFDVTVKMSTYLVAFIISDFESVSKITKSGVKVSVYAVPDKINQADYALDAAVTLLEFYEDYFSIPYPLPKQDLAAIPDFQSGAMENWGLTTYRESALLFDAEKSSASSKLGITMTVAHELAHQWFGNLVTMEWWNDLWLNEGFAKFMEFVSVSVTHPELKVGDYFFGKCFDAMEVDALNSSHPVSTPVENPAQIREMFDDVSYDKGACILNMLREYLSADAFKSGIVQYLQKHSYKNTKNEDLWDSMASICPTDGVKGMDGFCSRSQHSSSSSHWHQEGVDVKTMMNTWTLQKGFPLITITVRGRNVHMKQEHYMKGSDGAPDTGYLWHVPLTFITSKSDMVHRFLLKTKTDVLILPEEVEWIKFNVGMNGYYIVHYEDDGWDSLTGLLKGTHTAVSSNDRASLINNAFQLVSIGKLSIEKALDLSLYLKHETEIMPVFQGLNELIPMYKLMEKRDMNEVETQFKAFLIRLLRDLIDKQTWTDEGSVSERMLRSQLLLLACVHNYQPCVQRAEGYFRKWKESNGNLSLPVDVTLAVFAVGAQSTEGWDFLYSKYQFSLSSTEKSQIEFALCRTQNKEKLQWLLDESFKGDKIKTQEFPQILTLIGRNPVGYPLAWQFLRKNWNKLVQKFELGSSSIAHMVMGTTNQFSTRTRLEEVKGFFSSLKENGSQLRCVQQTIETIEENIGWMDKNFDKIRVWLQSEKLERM

Row | pIC50 [1] | IC50 [2] [µM] | IC50 [1] [µM] | Structure (SMILES)
1 | inactive | 1.26 |  | N[C@H]1CCSSC[C@@H](C(=O)NCc2ccccc2CC(=O)O)NC(=O)C[C@H](Cc2ccc(O)cc2)NC1=O
2 |  | 7.94 | 79.4 | CC[C@H](C)[C@H](NC(=O)[C@H](Cc1ccc(O)cc1)NC(=O)[C@@H](N)C(C)C)C(=O)N[C@@H](Cc1cnc[nH]1)C(=O)N1CCC[C@H]1C(=O)N[C@@H](Cc1ccccc1)C(=O)O [ANGIOTENSIN IV]
